These results are taken from patent US20250304990A1, “HERBICIDE RESISTANCE” (SYNGENTA CROP PROTECTION AG, priority 2021, published 2025).

Common to all, as to type: in vivo
Assay [1] concerns D4428 (F266I mutant Oryza sativa HST) containing tobacco plant. The assay is described as follows: Herbicide damage score after spraying, Example 4. As to conditions: T1 B5u 500 gai/ha, averaged across transgenic population. Here is the method: (§1) In order to determine if the newly discovered mutations detailed in Example 1 confer resistance to HST inhibiting compounds when expressed in plants, GM tobacco lines were produced and tested with HST inhibiting compounds. Transgenic tobacco plants expressing the Oryza sativa HST gene with and without mutations were tested.
(§2) Populations of transgenic tobacco comprising 20-30 transgenic events per plant transformation constructs were generated as described in Example 2. These lines were clonally propagated and 1 clone per event was sprayed with 500, 100 or 50 g ai/ha of compound 1+0.2% (w/v) Genapol X080 with a spray volume of 200 L/Ha. (“g ai/ha” refers to grams of active compound per hectare).
(§3) Herbicidal damage was visually assessed across the population and a herbicide damage score given at 7 and 14 days. A score of 0 indicates no visible damage or stunting whereas a score of 100 indicates a complete death of the plant. 20 transgenic events (i.e. individual transgenic plants) from each GM tobacco line were transplanted to soil 1 week prior to spraying with HST inhibiting compounds. WT tobacco was included as a control. The mutated genes are identified in Table 16 below.
(§4) The values in Tables 17 to 23 below refer to percentage of damage to the tested plants and show the damage scores for 20 populations of plants expressing either Oryza sativa WT HST gene (SEQ ID NO. 18), the Oryza sativa HST mutated gene according to SEQ ID NO. 47, the Oryza sativa HST mutated gene according to SEQ ID NO. 48, the Oryza sativa HST mutated gene according to SEQ ID NO. 49, the Oryza sativa HST mutated gene according to SEQ ID NO. 50, or the Oryza sativa HST mutated gene according to SEQ ID NO. 51. A control population of wild-type Samsun tobacco was also assessed for herbicide damage. […] However the mutated versions of the HST gene carrying the F262I, V263A, […], or F266L mutations (SEQ ID NOs: 47, 48, 50 or 51) clearly display increased tolerance.

Assay [2] deals with D4427 (T264N mutant Oryza sativa HST) containing tobacco plant. The assay is described as follows: Herbicide damage score after spraying, Example 4. To be noted: T1 B5u 500 gai/ha. As to the method:
as §1, §2, §3, §4

Assay [3] has as its system D4424 (WT Oryza sativa HST) containing tobacco plant. The assay is described as follows: Herbicide damage score after spraying, Example 4. As to the method: as §1, §2, §3, §4
In assay [4] the test system is WT tobacco. Nature of the assay: Herbicide damage score after spraying, Example 4. To be noted: T1 B5u 500 gai/ha; WT tobacco (Example 4); per plant. As to the method:
as §1, §2, §3, §4

Assay [5] has as its system D4426 (V263A mutant Oryza sativa HST) containing tobacco plant. Nature of the assay: Herbicide damage score after spraying, Example 4. As to conditions: T1 B5u 500 gai/ha; D4426 V263A; averaged across transgenic population. Here is the method:
as §1, §2, §3, §4

The subject of assay [6] is D4429 (F266L mutant Oryza sativa HST) containing tobacco plant. The assay is described as follows: Herbicide damage score after spraying, Example 4. As to conditions: T1 B5u 500 gai/ha, averaged across transgenic population. Here is the method:
as §1, §2, §3, §4

For assay [7], the system named is D4425 (F262I mutant Oryza sativa HST) containing tobacco plant. Nature of the assay: Herbicide damage score after spraying, Example 4. As to conditions: T1 B5u 500 gai/ha, averaged across transgenic population. Here is the method:
as §1, §2, §3, §4

Assay [8] relates to D4291 (WT Arabidopsis thaliana HST) containing tobacco plant. Nature of the assay: Herbicide damage score after spraying, Example 3. As to the method:
(§5) In order to determine if the newly discovered mutations detailed in Example 1 confer resistance to HST inhibiting compounds when expressed in plants, GM tobacco lines are to be produced and tested with HST inhibiting compounds. Transgenic tobacco plants expressing the Arabidopsis HST gene with and without mutations were tested.
(§6) Populations of transgenic tobacco comprising 20-30 transgenic events per plant transformation constructs were generated as described in Example 2. These lines were clonally propagated and 1 clone per event was sprayed with 500, 100 or 50 g ai/ha of compound 1+0.2% Genapol X080 with a spray volume of 200 L/Ha (“g ai/ha” refers to grams of active compound per hectare).
(§7) Herbicidal damage was visually assessed across the population and a herbicide damage score given at 7 and 14 days. A score of 0 indicates no visible damage or stunting whereas a score of 100 indicates a complete death of the plant. 20 transgenic events (i.e. individual transgenic plants) from each GM tobacco line were transplanted to soil 1 week prior to spraying with HST inhibiting compounds. WT tobacco was included as a control.
(§8) The values in Tables 8 to 14 below refer to percentage of damage to the tested plants and show the damage scores for 20 populations of plants expressing either Arabidopsis WT HST gene (SEQ ID NO. 14), the Arabidopsis HST mutated gene according to SEQ ID NO. 27, the Arabidopsis HST mutated gene according to SEQ ID NO. 28, the Arabidopsis HST mutated gene according to SEQ ID NO. 29, the Arabidopsis HST mutated gene according to SEQ ID NO. 30, or the Arabidopsis HST mutated gene according to SEQ ID NO. 31. A control population of wild-type Samsun tobacco was also assessed for herbicide damage. […] However the mutated versions of the HST gene carrying the F276I, V277A, F280I or F280L mutations (SEQ ID NOs: 27, 28, 30 or 31) clearly display increased tolerance.

The test system of assay [9] is D4293 (V277A mutant Arabidopsis thaliana HST) containing tobacco plant. The assay is described as follows: Herbicide damage score after spraying, Example 3. As to conditions: T1 B5u 500 gai/ha, averaged across transgenic population. As to the method:
as §5, §6, §7, §8

The test system of assay [10] is D4292 (F276I mutant Arabidopsis thaliana HST) containing tobacco plant. The assay is described as follows: Herbicide damage score after spraying, Example 3. As to conditions: T1 B5u 500 gai/ha, averaged across transgenic population. As to the method:
as §5, §6, §7, §8

Assay [11] relates to WT tobacco. Nature of the assay: Herbicide damage score after spraying, Example 3. To be noted: T1 B5u 500 gai/ha; WT tobacco control; per plant. As to the method:
as §5, §6, §7, §8

The test system of assay [12] is D4294 (T278N mutant Arabidopsis thaliana HST) containing tobacco plant. The assay is described as follows: Herbicide damage score after spraying, Example 3. To be noted: T1 B5u 500 gai/ha; D4294 T278N; averaged across transgenic population. Here is the method: as §5, §6, §7, §8
Assay [13] relates to D4295 (F280I mutant Arabidopsis thaliana HST) containing tobacco plant. The assay is described as follows: Herbicide damage score after spraying, Example 3. To be noted: T1 B5u 500 gai/ha, averaged across transgenic population. As to the method: as §5, §6, §7, §8

Where “and” joins values, the source holds several entries; their conditions need not be identical. Identical values can stand only once.

With `Cc1nn(C)c(=O)c(-c2c(F)ccc(Cl)c2CCc2ccc(C(F)(F)F)cc2)c1OC(=O)C(C)C` [B5u, [5-[3-chloro-6-fluoro-2-[2-[4-(trifluoromethyl)phenyl]ethyl]phenyl]-1,3-dimethyl-6-oxo-pyridazin-4-yl]2-methylpropanoate], the Average percentage damage in [1] came out at 56%; in assay [2] (D4427 T264N, averaged across transgenic population) it was 67%; in [3] (T1 B5u 500 gai/ha, D4424, mutation n.a., averaged across transgenic population), 31%; in assay [5] it was 24%; in assay [6], 40%; in assay [7], 38%. Besides, the Average percentage damage stood at 55% in assay [8] (T1 B5u 500 gai/ha, D4291, mutation n.a., averaged across transgenic population); 22% in assay [9]; 28% in assay [10]; 76% in assay [12]; 35% in assay [13]. In addition, the percentage of damage is 50% in [2] (D4427 OsHST V003 T264N, per event); 98% and 97% and 96% and 95% in [4]; 95% and 90% in assay [11]. Moreover, the tolerance to herbicide result in assay [3] (overexpression of Oryza sativa HST gene (SEQ ID NO.18) in tobacco) and in assay [8] (overexpression of Arabidopsis HST gene (SEQ ID NO.14) in tobacco) was “does not increase tolerance” throughout.
